Reference: patent publication US5227375A, “Aromatase inhibitors” (Endorecherche, Inc., priority 1990, dated 1993)
pKi: −log10 of the molar value.

Target: T1, placental aromatase (Homo sapiens, UniProt P11511)
T1 construct: Microsomal aromatase was obtained from human placenta; from tissue; host or cells: human placenta microsomes
T1 sequence (P11511 1-503): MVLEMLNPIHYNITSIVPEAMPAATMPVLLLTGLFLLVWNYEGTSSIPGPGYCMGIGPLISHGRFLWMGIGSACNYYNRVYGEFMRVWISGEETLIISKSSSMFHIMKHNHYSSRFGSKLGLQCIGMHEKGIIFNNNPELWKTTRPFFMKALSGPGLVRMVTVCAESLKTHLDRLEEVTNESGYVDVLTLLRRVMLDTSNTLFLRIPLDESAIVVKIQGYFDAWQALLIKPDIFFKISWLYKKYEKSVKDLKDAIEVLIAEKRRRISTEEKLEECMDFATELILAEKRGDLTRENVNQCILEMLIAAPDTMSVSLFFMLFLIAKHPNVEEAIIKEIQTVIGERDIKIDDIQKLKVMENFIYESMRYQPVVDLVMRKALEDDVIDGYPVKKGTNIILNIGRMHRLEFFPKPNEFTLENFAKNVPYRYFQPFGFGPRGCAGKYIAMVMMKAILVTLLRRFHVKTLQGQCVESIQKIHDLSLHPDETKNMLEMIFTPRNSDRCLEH
Test: Inhibition of placental aromatase activity (tritiated water release from [3H]androstenedione; modified Thompson and Siiteri assay)
Assay type: biochemical
Conditions: for aromatase inhibitory activity (in words): qualitative statement
Method: Microsomal aromatase was obtained from human placenta. A reaction vessel was prepared containing microsomes (0.124 mg protein/ml), NADPH (0.625 mM), [^3 H]androstenedione (0.33 μM) and increasing concentrations of the potential inhibitor being tested in buffer (800 μl) (0.1M KH2 PO4, pH 7.5). The conversion of androstenedione to estrone was allowed to proceed at 37° C. for 30 min and stopped by addition of 200 μl of charcoal suspension (25 mg/ml) in the same buffer. After centrifugation, tritiated water contained in 100 μl of supernatant was counted. The amount of tritiated water is proportional to the amount of transformed [^3 H] androstenedione.

Compound	pKi	aromatase inhibitory activity (in words)
C=CC[C@@H]1CC2=CC(=O)CC[C@]2(C)[C@H]2CC[C@]3(C)C(=O)CC[C@H]3[C@H]12 [EM 173, 7α-allyl-4-androsten-3,17-dione]	6.70	showed aromatase inhibitory activity
C=CC[C@@H]1C[C@@H]2CC(=O)CC[C@]2(C)[C@H]2CC[C@]3(C)C(=O)CC[C@H]3[C@H]12 [EM 176, 7α-allyl-5β-androstan-3,17-dione]	6.05	showed aromatase inhibitory activity
C=CC[C@@H]1C[C@H]2CC(=O)CC[C@]2(C)[C@H]2CC[C@]3(C)C(=O)CC[C@H]3[C@H]12 [EM 198, 7α-allyl-5α-androstan-3,17-dione]	6.22	showed aromatase inhibitory activity
